Laboratory results from ChEMBL document CHEMBL4673239, “Discovery of Tyrosine Kinase 2 (TYK2) Inhibitor (PF-06826647) for the Treatment of Autoimmune Diseases” (J Med Chem, 2020).

What was measured:
[1] = target: Non-receptor tyrosine-protein kinase TYK2 (Homo sapiens, UniProt P29597); assay: biochemical
[2] = target: T1, Tyrosine-protein kinase JAK3 (Homo sapiens, UniProt P52333); assay: Inhibition of recombinant human GST-tagged JAK3 catalytic domain (781 to 1124 residues) expressed in baculovirus expression system using FITC-KGGEEEEYFELVKK as substrate in presence of ATP at Km by microfluidic assay
T1 sequence (P52333 whole entry): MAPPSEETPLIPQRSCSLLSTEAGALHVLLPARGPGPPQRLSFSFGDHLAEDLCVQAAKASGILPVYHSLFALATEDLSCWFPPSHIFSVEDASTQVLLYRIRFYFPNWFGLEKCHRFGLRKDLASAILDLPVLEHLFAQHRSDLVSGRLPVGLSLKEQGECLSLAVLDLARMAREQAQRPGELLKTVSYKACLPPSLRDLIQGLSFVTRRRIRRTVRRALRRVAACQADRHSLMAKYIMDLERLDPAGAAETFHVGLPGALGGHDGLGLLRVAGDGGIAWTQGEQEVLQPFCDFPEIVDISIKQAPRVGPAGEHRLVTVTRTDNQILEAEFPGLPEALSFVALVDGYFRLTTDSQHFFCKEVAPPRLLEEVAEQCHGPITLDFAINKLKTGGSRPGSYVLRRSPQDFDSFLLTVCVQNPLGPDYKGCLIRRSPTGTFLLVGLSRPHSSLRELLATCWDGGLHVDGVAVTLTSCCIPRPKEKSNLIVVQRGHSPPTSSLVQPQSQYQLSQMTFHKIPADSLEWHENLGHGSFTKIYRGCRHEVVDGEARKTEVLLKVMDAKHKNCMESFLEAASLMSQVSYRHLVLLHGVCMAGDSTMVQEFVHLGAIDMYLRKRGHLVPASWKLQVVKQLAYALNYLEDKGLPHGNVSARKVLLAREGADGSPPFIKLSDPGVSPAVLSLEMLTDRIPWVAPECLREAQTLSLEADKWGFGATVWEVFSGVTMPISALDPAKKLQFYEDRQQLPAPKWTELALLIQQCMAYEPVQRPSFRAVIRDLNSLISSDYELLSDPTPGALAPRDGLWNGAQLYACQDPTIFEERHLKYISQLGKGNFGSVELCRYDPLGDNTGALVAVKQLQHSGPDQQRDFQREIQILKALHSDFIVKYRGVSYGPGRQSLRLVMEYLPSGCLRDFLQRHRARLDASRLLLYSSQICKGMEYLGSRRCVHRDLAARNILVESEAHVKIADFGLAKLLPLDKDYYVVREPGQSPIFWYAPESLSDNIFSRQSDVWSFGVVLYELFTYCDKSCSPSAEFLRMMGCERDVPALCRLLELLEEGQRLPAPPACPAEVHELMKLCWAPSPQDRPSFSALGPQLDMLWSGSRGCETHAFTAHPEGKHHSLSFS

[3] = Clearance in human liver microsomes assessed per mg protein; format: ADME, Microsome; conditions: read-out: CLH
physchem = conditions: octanol/water phosphate buffer, pH 7.4
Description: Octanol/water phosphate buffer partition coefficient, log D of compound at pH 7.4 by shake-flask method

[4] = target: T2, Tyrosine-protein kinase JAK2 (Homo sapiens, UniProt O60674); assay: Inhibition of recombinant human GST-tagged JAK2 catalytic domain (809 to 1153+9 residues) expressed in baculovirus expression system using FITC-KGGEEEEYFELVKK as substrate in presence of ATP at Km by microfluidic assay
[5] = target: Tyrosine-protein kinase JAK1 (Homo sapiens, UniProt P23458)
[6] = Apparent permeability in MDCK-II cells; format: ADME, cell-based, Canis lupus familiaris; conditions: dog
[7] = Apparent clearance in human hepatocytes assessed per million cells; format: ADME, cell-based, Hepatocyte; conditions: read-out: CLH
[8] = Fraction unbound in human plasma; format: ADME, cell-free
Homo sapiens = species: Homo sapiens; assay: Selectivity ratio of IC50 for recombinant human GST-tagged JAK2 catalytic domain (809 to 1153+9 residues) expressed in baculovirus expression system to IC50 for inhibition of recombinant human His-tagged TYK2 expressed in baculovirus infected Sf21 cells
TYK2/JAK2 (Homo sapiens) = conditions: Blood, time 60.0 min
[9] = target: T2, Tyrosine-protein kinase JAK2; assay: Inhibition of JAK2 homodimer signaling pathway in human whole blood spiked with CD34 +ve cells assessed as reduction in EPO induced STAT5 phosphorylation preincubated for 45 mins followed by EPO addition and measured measured after 15 mins by immunostaining based FACS assay; format: tissue-based

T2 sequence (O60674 whole entry, the tested form may be a part): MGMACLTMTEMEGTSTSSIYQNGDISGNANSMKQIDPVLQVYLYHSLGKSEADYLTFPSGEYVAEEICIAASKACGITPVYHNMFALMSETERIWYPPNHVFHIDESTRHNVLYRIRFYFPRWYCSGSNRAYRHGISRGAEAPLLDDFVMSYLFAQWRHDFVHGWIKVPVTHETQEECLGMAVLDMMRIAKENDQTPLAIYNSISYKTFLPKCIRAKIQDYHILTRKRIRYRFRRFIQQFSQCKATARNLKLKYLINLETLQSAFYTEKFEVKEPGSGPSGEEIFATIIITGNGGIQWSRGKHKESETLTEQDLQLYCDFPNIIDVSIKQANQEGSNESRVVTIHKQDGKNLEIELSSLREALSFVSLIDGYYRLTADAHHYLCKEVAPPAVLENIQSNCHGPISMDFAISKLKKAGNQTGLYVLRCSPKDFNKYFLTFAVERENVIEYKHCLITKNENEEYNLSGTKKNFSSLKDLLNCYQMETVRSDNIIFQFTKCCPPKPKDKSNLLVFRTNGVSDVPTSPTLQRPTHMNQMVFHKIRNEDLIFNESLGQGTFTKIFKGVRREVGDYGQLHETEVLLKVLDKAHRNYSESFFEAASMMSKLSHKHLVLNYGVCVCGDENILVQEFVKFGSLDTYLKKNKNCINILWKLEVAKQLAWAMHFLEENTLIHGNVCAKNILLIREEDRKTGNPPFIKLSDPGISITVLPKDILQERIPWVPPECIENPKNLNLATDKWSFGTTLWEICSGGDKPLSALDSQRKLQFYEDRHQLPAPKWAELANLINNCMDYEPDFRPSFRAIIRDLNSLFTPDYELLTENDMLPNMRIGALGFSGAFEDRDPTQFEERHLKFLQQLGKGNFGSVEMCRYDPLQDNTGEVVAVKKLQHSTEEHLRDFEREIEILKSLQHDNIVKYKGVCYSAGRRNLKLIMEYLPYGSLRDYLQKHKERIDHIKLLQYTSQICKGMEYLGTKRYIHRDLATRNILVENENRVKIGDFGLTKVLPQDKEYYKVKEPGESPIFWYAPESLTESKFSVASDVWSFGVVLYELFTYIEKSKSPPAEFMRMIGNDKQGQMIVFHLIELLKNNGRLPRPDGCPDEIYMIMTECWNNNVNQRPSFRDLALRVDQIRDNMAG
Non-receptor tyrosine-protein kinase TYK2, sequence (P29597 whole entry, the tested form may be a part): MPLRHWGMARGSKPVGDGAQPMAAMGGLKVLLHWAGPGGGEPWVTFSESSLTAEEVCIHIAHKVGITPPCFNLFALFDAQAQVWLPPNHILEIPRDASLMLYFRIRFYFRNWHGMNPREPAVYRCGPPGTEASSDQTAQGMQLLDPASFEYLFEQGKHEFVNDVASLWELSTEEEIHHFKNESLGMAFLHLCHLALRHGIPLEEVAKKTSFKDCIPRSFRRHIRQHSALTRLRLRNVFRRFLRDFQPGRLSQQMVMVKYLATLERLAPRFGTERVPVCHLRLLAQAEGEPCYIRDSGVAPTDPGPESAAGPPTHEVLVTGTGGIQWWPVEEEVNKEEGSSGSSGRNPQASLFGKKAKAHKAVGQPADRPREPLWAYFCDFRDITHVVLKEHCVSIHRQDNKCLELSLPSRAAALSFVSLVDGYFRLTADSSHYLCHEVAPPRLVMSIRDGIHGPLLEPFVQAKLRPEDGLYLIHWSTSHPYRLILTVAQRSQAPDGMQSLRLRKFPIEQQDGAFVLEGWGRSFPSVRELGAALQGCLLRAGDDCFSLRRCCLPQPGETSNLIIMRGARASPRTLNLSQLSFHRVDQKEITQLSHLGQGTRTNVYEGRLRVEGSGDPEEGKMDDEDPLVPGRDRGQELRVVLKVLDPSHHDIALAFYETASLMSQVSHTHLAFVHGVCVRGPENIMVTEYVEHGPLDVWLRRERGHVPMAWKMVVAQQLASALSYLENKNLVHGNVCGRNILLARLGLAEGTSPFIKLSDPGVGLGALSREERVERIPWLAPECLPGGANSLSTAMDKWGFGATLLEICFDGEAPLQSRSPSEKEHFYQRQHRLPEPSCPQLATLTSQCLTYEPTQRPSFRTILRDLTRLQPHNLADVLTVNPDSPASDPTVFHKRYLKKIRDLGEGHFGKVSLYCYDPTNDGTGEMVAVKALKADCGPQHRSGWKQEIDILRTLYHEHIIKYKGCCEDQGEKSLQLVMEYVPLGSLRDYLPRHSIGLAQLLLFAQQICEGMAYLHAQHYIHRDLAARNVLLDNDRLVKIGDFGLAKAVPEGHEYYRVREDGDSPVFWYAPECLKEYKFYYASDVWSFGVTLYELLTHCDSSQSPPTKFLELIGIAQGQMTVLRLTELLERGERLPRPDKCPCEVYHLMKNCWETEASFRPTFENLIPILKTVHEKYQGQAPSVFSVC
Tyrosine-protein kinase JAK1, sequence (P23458 whole entry): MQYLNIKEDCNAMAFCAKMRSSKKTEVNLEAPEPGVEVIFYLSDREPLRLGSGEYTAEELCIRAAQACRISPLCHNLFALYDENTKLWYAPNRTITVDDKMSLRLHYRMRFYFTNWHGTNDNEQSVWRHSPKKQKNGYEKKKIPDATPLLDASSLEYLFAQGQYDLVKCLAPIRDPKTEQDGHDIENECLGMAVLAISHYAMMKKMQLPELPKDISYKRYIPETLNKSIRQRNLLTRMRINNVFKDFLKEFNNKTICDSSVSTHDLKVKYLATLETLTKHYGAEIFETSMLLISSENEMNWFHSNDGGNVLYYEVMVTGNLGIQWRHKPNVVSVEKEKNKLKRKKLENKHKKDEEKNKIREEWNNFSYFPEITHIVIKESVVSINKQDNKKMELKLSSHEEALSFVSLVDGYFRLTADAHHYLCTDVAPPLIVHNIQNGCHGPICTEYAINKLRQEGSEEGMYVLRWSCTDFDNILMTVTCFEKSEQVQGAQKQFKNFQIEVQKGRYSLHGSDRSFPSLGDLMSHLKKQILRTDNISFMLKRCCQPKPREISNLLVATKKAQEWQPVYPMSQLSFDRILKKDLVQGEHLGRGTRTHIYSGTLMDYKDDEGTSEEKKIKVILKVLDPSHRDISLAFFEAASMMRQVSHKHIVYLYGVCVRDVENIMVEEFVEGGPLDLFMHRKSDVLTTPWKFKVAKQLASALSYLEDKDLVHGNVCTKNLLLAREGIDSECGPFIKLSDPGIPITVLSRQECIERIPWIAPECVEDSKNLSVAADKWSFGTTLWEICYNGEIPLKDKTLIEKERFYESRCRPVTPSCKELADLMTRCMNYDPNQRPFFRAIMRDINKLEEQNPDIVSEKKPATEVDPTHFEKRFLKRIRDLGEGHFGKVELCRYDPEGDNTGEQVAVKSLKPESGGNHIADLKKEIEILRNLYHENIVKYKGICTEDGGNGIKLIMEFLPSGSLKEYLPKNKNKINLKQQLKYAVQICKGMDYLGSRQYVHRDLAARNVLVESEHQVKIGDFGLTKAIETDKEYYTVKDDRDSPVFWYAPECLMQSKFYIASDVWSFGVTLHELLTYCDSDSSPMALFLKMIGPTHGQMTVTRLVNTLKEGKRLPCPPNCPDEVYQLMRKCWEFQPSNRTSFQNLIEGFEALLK

Structure (SMILES) | IC50 [1] [nM] | IC50 [2] [nM] | microsomal CLint [3] [µL/min/mg] | logD (physchem) | IC50 [4] [nM] | IC50 [5] [nM] | Papp [6] [×10⁻⁶ cm/s] | IC50 [9] [nM] | hepatocyte CLint [7] [µL/min/1e6 cells] | fraction unbound [8] | Ratio IC50 (Homo sapiens) | fIC50 (TYK2/JAK2 (Homo sapiens)) [nM]
Cn1cc(-c2cn3nccc3c(-c3cnn([C@]4(CC#N)C[C@H](C#N)C4)c3)n2)cn1 | – | – | 17 | 1.8 | – | – | 15 | – | 12 | 0.34 | – | –
Cn1cc(-c2cn3nccc3c(-c3cnn([C@]4(CC#N)C[C@H](CC#N)C4)c3)n2)cn1 | – | – | 10 | 1.8 | – | – | 21 | – | – | – | – | –
N#CC[C@]1(n2cc(-c3nc(-c4cc[nH]n4)cn4nccc34)cn2)C[C@@H](C#N)C1 | 9 | 4450 | 20 | 1.7 | 31 | 43 | 7 | – | – | – | – | –
N#CC[C@]1(n2cc(-c3nc(-c4cc[nH]n4)cn4nccc34)cn2)C[C@H](C#N)C1 | 26 | > 10000 | < 8 | 1.7 | 172 | 284 | 17 | – | 7 | 0.32 | 7 | 334
N#CC[C@]1(n2cc(-c3nc(-c4cn[nH]c4)cn4nccc34)cn2)C[C@@H](C#N)C1 | 8 | 2240 | 44 | 1.6 | 22 | 22 | 6 | – | – | – | – | –
Cn1cc(-c2cn3nccc3c(-c3cnn([C@]4(CC#N)C[C@@H](CC#N)C4)c3)n2)cn1 | – | – | 11 | 1.9 | – | – | 20 | – | – | – | – | –
CO[C@H]1C[C@](CC#N)(n2cc(-c3nc(-c4cnn(C)c4)cn4nccc34)cn2)C1 | – | – | < 8 | 2.3 | – | – | 22 | 1100 | 6 | 0.3 | – | –
Cn1ccc(-c2cn3nccc3c(-c3cnn([C@]4(CC#N)C[C@@H](C#N)C4)c3)n2)n1 | 67 | > 10000 | < 8 | 1.6 | 467 | 2530 | 20 | – | < 2 | 0.2 | 7 | 254
Cn1ccc(-c2cn3nccc3c(-c3cnn([C@]4(CC#N)C[C@H](C#N)C4)c3)n2)n1 | 10 | > 9590 | 23 | 1.6 | 45 | 261 | 14 | – | – | – | – | –
N#CC[C@]1(n2cc(-c3nc(-c4cn[nH]c4)cn4nccc34)cn2)C[C@H](C#N)C1 | 44 | > 10000 | 19 | 1.7 | 280 | 398 | 7 | – | – | – | – | –
CO[C@H]1C[C@@](CC#N)(n2cc(-c3nc(-c4cnn(C)c4)cn4nccc34)cn2)C1 | – | > 10000 | 27 | 2.2 | – | – | 20 | – | – | – | – | –

The next lines start with results.

IC50 [1] [nM] | IC50 [2] [nM] | microsomal CLint [3] [µL/min/mg] | logD (physchem) | IC50 [4] [nM] | IC50 [5] [nM] | Papp [6] [×10⁻⁶ cm/s] | IC50 [9] [nM] | Structure (SMILES) | hepatocyte CLint [7] [µL/min/1e6 cells] | fraction unbound [8] | Ratio IC50 (Homo sapiens) | fIC50 (TYK2/JAK2 (Homo sapiens)) [nM]
46 | > 10000 | 21 | 2.1 | 346 | 2670 | 33 | – | CCN1CC(CC#N)(n2cc(-c3nc(-c4cnn(C)c4)cn4nccc34)cn2)C1 | – | – | – | –
290 | – | – | 2.1 | – | – | – | – | Cn1cc(-c2cc(-c3cnn(C4(CC#N)CN(CC(F)(F)F)C4)c3)n3ccnc3c2)cn1 | – | – | – | –
476 | – | – | 2.3 | – | – | – | – | Cn1cc(-c2cc(-c3cnn(C4(CC#N)CN(CC(F)(F)F)C4)c3)n3ncnc3c2)cn1 | – | – | – | –
> 10000 | – | – | 1.2 | – | – | – | – | Cn1cc(-c2cc(-c3cnn(C4(CC#N)CN(CC(F)(F)F)C4)c3)n3cnnc3c2)cn1 | – | – | – | –
40 | > 10000 | 30 | – | 187 | 933 | 27 | – | Cn1cc(-c2cn3nccc3c(-c3cnn(C4(CC#N)CN(CC5CC5)C4)c3)n2)cn1 | – | – | – | –
678 | > 10000 | < 8 | 1.2 | 1750 | 6110 | 4 | – | CC(=O)N1CC(CC#N)(n2cc(-c3nc(-c4cnn(C)c4)cn4nccc34)cn2)C1 | – | – | – | –
10 | > 9850 | 18 | 2.5 | 65 | 358 | 18 | – | Cn1cc(-c2cn3nccc3c(-c3cnn(C4(CC#N)CN(CC(F)(F)F)C4)c3)n2)cn1 | – | – | – | –
189 | > 10000 | < 8 | 1.2 | 1040 | 5580 | 7 | – | Cn1cc(-c2cn3nccc3c(-c3cnn(C4(CC#N)CN(CCO)C4)c3)n2)cn1 | – | – | – | –
– | – | < 8 | 1.5 | – | – | 11 | – | Cn1cc(-c2cn3nccc3c(-c3cnn(C4(CC#N)CN(CC#N)C4)c3)n2)cn1 | – | – | – | –
